Laboratory results from patent publication US20250296953A1, “3,4-THIAZOLO-STEROIDS AND METHODS OF MAKING AND USING THE SAME” (Arkansas State University - Jonesboro, priority 2018, published 2025).
Like-named read-outs stand apart in the source and are kept apart here.

Columns and labels:
[1] = tested on: 60 different human tumor cell lines; experiment: NCI Development Therapeutics Program 60 cell line screen, one dose; format: cell-based
[2] = tested on: SF-539; experiment: NCI 60 one dose screen; format: cell-based, human; settings: one dose; CNS Cancer; SF-539
[3] = tested on: 60 different human tumor cell lines; experiment: cells
[4] = tested on: glioblastoma (SF-295); experiment: NCI 60 five dose screen

## C[C@]12CC[C@H]3[C@@H](CC=C4c5sc(-c6ccc(O)cc6)nc5CC[C@@]43C)[C@@H]1CC[C@@H]2O [III.5, (1S,2R,13R,14S,17S,18S)-7-(4-hydroxyphenyl)-2,18-dimethyl-8-thia-6-azapentacyclo[11.7.0.02,10.05,9.014,18]icosa-5(9),6,10-trien-17-ol]
[1]; Breast Cancer, BT-549
  Growth Percent: 59.26%
[1]; Breast Cancer, HS 578T
  Growth Percent: 4.16%
[1]; Breast Cancer, MCF7
  Growth Percent: 42.59%
[1]; Breast Cancer, MDA-MB-231/ATCC
  Growth Percent: 56.24%
[1]; Breast Cancer, MDA-MB-468
  Growth Percent: 81.03%
[1]; Breast Cancer, T-47D
  Growth Percent: 67.74%
[1]; CNS Cancer, SF-268
  Growth Percent: 48.55%
[1]; CNS Cancer, SNB-19
  Growth Percent: 71.05%
[1]; CNS Cancer, SNB-75
  Growth Percent: 26.42%
[1]; CNS Cancer, U251
  Growth Percent: 20.08%
[1]; Colon Cancer, COLO 205
  Growth Percent: 77.66%
[1]; Colon Cancer, HCC-2998
  Growth Percent: 95.33%
[1]; Colon Cancer, HCT-116
  Growth Percent: 43.80%
[1]; Colon Cancer, HT29
  Growth Percent: 19.90%
[1]; Colon Cancer, KM12
  Growth Percent: 60.79%
[1]; Colon Cancer, SW-620
  Growth Percent: 71.71%
[1]; Leukemia, CCRF-CEM
  Growth Percent: 13.10%
[1]; Leukemia, HL-60(TB)
  Growth Percent: 22.65%
[1]; Leukemia, K-562
  Growth Percent: 13.87%
[1]; Leukemia, MOLT-4
  Growth Percent: −23.23%
[1]; Leukemia, RPMI-8226
  Growth Percent: −36.92%
[1]; Leukemia, SR
  Growth Percent: 5.95%
[1]; Melanoma, LOX IMVI
  Growth Percent: 25.37%
[1]; Melanoma, M14
  Growth Percent: 60.54%
[1]; Melanoma, MALME-3M
  Growth Percent: 72.42%
[1]; Melanoma, MDA-MB-435
  Growth Percent: 91.96%
[1]; Melanoma, SK-MEL-2
  Growth Percent: 44.94%
[1]; Melanoma, SK-MEL-5
  Growth Percent: 71.98%
[1]; Melanoma, SK-MEL-28
  Growth Percent: 53.31%
[1]; Melanoma, UACC-62
  Growth Percent: 28.69%
[1]; Melanoma, UACC-257
  Growth Percent: 66.19%
[1]; Non-small Cell Lung Cancer, A549/ATCC
  Growth Percent: 52.15%
[1]; Non-small Cell Lung Cancer, EKVX
  Growth Percent: 63.56%
[1]; Non-small Cell Lung Cancer, HOP-62
  Growth Percent: 46.75%
[1]; Non-small Cell Lung Cancer, NCI-H23
  Growth Percent: 74.72%
[1]; Non-small Cell Lung Cancer, NCI-H226
  Growth Percent: 109.87%
[1]; Non-small Cell Lung Cancer, NCI-H322M
  Growth Percent: 92.82%
[1]; Non-small Cell Lung Cancer, NCI-H460
  Growth Percent: 41.91%
[1]; Ovarian Cancer, IGROV1
  Growth Percent: 80.66%
[1]; Ovarian Cancer, NCI/ADR-RES
  Growth Percent: 76.79%
[1]; Ovarian Cancer, OVCAR-3
  Growth Percent: 38.63%
[1]; Ovarian Cancer, OVCAR-4
  Growth Percent: 81.75%
[1]; Ovarian Cancer, OVCAR-5
  Growth Percent: 106.38%
[1]; Ovarian Cancer, OVCAR-8
  Growth Percent: 74.18%
[1]; Ovarian Cancer, SK-OV-3
  Growth Percent: 38.63%
[1]; Prostate Cancer, DU-145
  Growth Percent: 63.77%
[1]; Prostate Cancer, PC-3
  Growth Percent: 49.49%
[1]; Renal Cancer, 786-0
  Growth Percent: 8.35%
[1]; Renal Cancer, A498
  Growth Percent: 49.45%
[1]; Renal Cancer, ACHN
  Growth Percent: 46.04%
[1]; Renal Cancer, CAKI-1
  Growth Percent: 61.32%
[1]; Renal Cancer, RXF 393
  Growth Percent: −46.32%
[1]; Renal Cancer, SN12C
  Growth Percent: 96.68%
[1]; Renal Cancer, TK-10
  Growth Percent: 89.27%
[1]; Renal Cancer, UO-31
  Growth Percent: 9.33%
[2]
  Growth Percent: 8.02%
[3]; 786-0
  GI50: 0.423 µM
[3]; 786-0, read-out: LC50
  CC50: 21.2 µM
[3]; A498
  GI50: 3.51 µM
[3]; A498, read-out: LC50
  CC50: > 100 µM
[3]; A549
  GI50: 5.95 µM
[3]; A549, read-out: LC50
  CC50: > 100 µM
[3]; ACHN
  GI50: 7.55 µM
[3]; ACHN, read-out: LC50
  CC50: > 100 µM
[3]; BT-549
  GI50: 1.14 µM
[3]; BT-549, read-out: LC50
  CC50: > 100 µM
[3]; CAKI-1
  GI50: 4.12 µM
[3]; CAKI-1, read-out: LC50
  CC50: > 100 µM
[3]; CCRF-CEM
  GI50: 2.05 µM
[3]; CCRF-CEM, read-out: LC50
  CC50: > 100 µM
[3]; COLO 205
  GI50: 9.14 µM
[3]; COLO 205, read-out: LC50
  CC50: > 100 µM
[3]; DU-145
  GI50: 9.54 µM
[3]; DU-145, read-out: LC50
  CC50: > 100 µM
[3]; EKVX
  GI50: 7.29 µM
[3]; EKVX, read-out: LC50
  CC50: > 100 µM
[3]; HCC 2998
  GI50: 31.9 µM
[3]; HCC 2998, read-out: LC50
  CC50: > 100 µM
[3]; HCT-15
  GI50: 2.43 µM
[3]; HCT-15, read-out: LC50
  CC50: > 100 µM
[3]; HCT-116
  GI50: 2.37 µM
[3]; HCT-116, read-out: LC50
  CC50: > 100 µM
[3]; HL-60
  GI50: 4.08 µM
[3]; HL-60, read-out: LC50
  CC50: > 100 µM
[3]; HOP-62
  GI50: 5.25 µM
[3]; HOP-62, read-out: LC50
  CC50: > 100 µM
[3]; HT-29
  GI50: 3.13 µM
[3]; HT-29, read-out: LC50
  CC50: > 100 µM
[3]; Hs-578T
  GI50: 1.59 µM
[3]; Hs-578T, read-out: LC50
  CC50: > 100 µM
[3]; IGROV-1
  GI50: 11.1 µM
[3]; IGROV-1, read-out: LC50
  CC50: > 100 µM
[3]; K562
  GI50: 3.48 µM
[3]; K562, read-out: LC50
  CC50: > 100 µM
[3]; KM12
  GI50: 7.24 µM
[3]; KM12, read-out: LC50
  CC50: > 100 µM
[3]; LOX IMVI
  GI50: 2.67 µM
[3]; LOX IMVI, read-out: LC50
  CC50: > 100 µM
[3]; M14
  GI50: 2.86 µM
[3]; M14, read-out: LC50
  CC50: > 100 µM
[3]; MCF7
  GI50: 3.34 µM
[3]; MCF7, read-out: LC50
  CC50: > 100 µM
[3]; MDA-MB-231
  GI50: 6.98 µM
[3]; MDA-MB-231, read-out: LC50
  CC50: > 100 µM
[3]; MDA-MB-435
  GI50: 16.4 µM
[3]; MDA-MB-435, read-out: LC50
  CC50: > 100 µM
[3]; MDA-MB-468
  GI50: 5.13 µM
[3]; MDA-MB-468, read-out: LC50
  CC50: > 100 µM
[3]; MOLT-4
  GI50: 1.93 µM
[3]; MOLT-4, read-out: LC50
  CC50: > 100 µM
[3]; Malme-3M
  GI50: 3.76 µM
[3]; Malme-3M, read-out: LC50
  CC50: > 100 µM
[3]; NCI-H23
  GI50: 14 µM
[3]; NCI-H23, read-out: LC50
  CC50: > 100 µM
[3]; NCI-H226
  GI50: 27.4 µM
[3]; NCI-H226, read-out: LC50
  CC50: > 100 µM
[3]; NCI-H322M
  GI50: 31.1 µM
[3]; NCI-H322M, read-out: LC50
  CC50: > 100 µM
[3]; NCI-H460
  GI50: 4.94 µM
[3]; NCI-H460, read-out: LC50
  CC50: > 100 µM
[3]; NCI-H522
  GI50: 22.6 µM
[3]; NCI-H522, read-out: LC50
  CC50: > 100 µM
[3]; NCI/ADR-RES
  GI50: 6.77 µM
[3]; NCI/ADR-RES, read-out: LC50
  CC50: > 100 µM
[3]; OVCAR-3
  GI50: 8.67 µM
[3]; OVCAR-3, read-out: LC50
  CC50: > 100 µM
[3]; OVCAR-4
  GI50: 7.24 µM
[3]; OVCAR-4, read-out: LC50
  CC50: > 100 µM
[3]; OVCAR-5
  GI50: 13.3 µM
[3]; OVCAR-5, read-out: LC50
  CC50: > 100 µM
[3]; OVCAR-8
  GI50: 40.9 µM
[3]; OVCAR-8, read-out: LC50
  CC50: > 100 µM
[3]; RXF 393
  GI50: 0.377 µM
[3]; RXF 393, read-out: LC50
  CC50: 8.58 µM
[3]; SF-268
  GI50: 5.32 µM
[3]; SF-268, read-out: LC50
  CC50: > 100 µM
[3]; SK-MEL-2
  GI50: 4.42 µM
[3]; SK-MEL-2, read-out: LC50
  CC50: > 100 µM
[3]; SK-MEL-5
  GI50: 3.15 µM
[3]; SK-MEL-5, read-out: LC50
  CC50: 48.5 µM
[3]; SK-MEL-28
  GI50: 3.05 µM
[3]; SK-MEL-28, read-out: LC50
  CC50: > 100 µM
[3]; SK-OV-3
  GI50: 19 µM
[3]; SK-OV-3, read-out: LC50
  CC50: > 100 µM
[3]; SN12C, read-out: LC50
  CC50: > 100 µM
[3]; SNB-19
  GI50: 7.95 µM
[3]; SNB-19, read-out: LC50
  CC50: > 100 µM
[3]; SNB-75
  GI50: 1.84 µM
[3]; SNB-75, read-out: LC50
  CC50: > 100 µM
[3]; SW-620
  GI50: 8.4 µM
[3]; SW-620, read-out: LC50
  CC50: > 100 µM
[3]; T47D
  GI50: 10.3 µM
[3]; T47D, read-out: LC50
  CC50: > 100 µM
[3]; TK-10
  GI50: > 100 µM
[3]; TK-10, read-out: LC50
  CC50: > 100 µM
[3]; U-251
  GI50: 2.23 µM
[3]; U-251, read-out: LC50
  CC50: > 100 µM
[3]; UACC-62
  GI50: 2.43 µM
[3]; UACC-62, read-out: LC50
  CC50: > 100 µM
[3]; UACC-257
  GI50: 11.9 µM
[3]; UACC-257, read-out: LC50
  CC50: > 100 µM
[3]; UO-31
  GI50: 2.48 µM
[3]; UO-31, read-out: LC50
  CC50: > 100 µM
[4]; Homo sapiens, SF-295
  GI50: 0.413 µM
[4]; Homo sapiens, SF-295, read-out: LC50
  CC50: 8.2 µM
[4]; SF-295 (CNS Cancer), five dose
  TGI: 2.03E−6
